Structures are written as SMILES. Some results are limits rather than exact numbers.

Consider 25 compounds from ChEMBL document CHEMBL3046881, “Precocious Metamorphosis-Inducing Activity of 1-Substituted Imidazoles” (1996).

Common to all, as to assay type: functional
Test [1] relates to Bombyx mori. Kind of test: Induction of precocious metamorphosis-inducing activity against fourth-instar larvae of Bombyx mori Shunrei x shogetsu compound treated topically.
For test [2], the system named is Bombyx mori. As to the kind of experiment: Induction of precocious metamorphosis-inducing activity against fourth-instar larvae of Bombyx mori Shunrei x shogetsu at >160 ug treated topically.
In test [3] the test system is Bombyx mori. As to the kind of experiment: Induction of precocious metamorphosis-inducing activity against fourth-instar larvae of Bombyx mori Shunrei x shogetsu at >80 ug treated topically.
Test [4] relates to Bombyx mori. As to the kind of experiment: Induction of precocious metamorphosis-inducing activity against fourth-instar larvae of Bombyx mori Shunrei x shogetsu at >40 ug treated topically.
Test [5] deals with Bombyx mori. As to the kind of experiment: Induction of precocious metamorphosis-inducing activity against fourth-instar larvae of Bombyx mori Shunrei x shogetsu at 40 ug treated topically.
The subject of test [6] is Bombyx mori. Kind of test: Induction of precocious metamorphosis-inducing activity against fourth-instar larvae of Bombyx mori Shunrei x shogetsu at 40 ug treated topically in presence of 10 ug methoprene.
In test [7] the test system is Bombyx mori. As to the kind of experiment: Induction of precocious metamorphosis-inducing activity against fourth-instar larvae of Bombyx mori Shunrei x shogetsu at 40 ug treated topically in presence of 0.01 ug tebufenozide.

The compound `CCc1ccc(OCCn2ccnc2)cc1` displayed an ED50 in test [1] of over 160 µg. The compound further had an Activity in test [2] of 11%.

`CCc1cccc(OCCCn2ccnc2)c1` registered an ED50 in test [1] of 36 µg.

With `CCCCOc1ccc(OCCCn2ccnc2)cc1`, the ED50 in test [1] is 27 µg. With `CCc1ccccc1OCCCn1ccnc1`, the ED50 in test [1] was over 80 µg. Also, the Activity in test [3] is 0%. In test [1], `CCCCCCOc1ccc(-n2ccnc2)cc1` returned an ED50 of 63 µg. In turn, `c1ccc(COc2ccc(OCCCn3ccnc3)cc2)cc1` yielded an ED50 in test [1] of over 160 µg. In test [2], this compound displayed an Activity of 0%. In test [1], `c1ccc(Oc2ccc(OCCCn3ccnc3)cc2)cc1` came in with an ED50 of over 80 µg. In test [3], this compound gave an Activity of 0%. In test [1], `CCc1ccc(OCCCCn2ccnc2)cc1` showed an ED50 of over 160 µg. For the same compound, the Activity in test [2] is reported as 20%. In test [1], `c1ccc(CCn2ccnc2)cc1` registered an ED50 of over 80 µg. In test [3], this compound returned an Activity of 0%.

In turn, `Clc1ccc(OCCCn2ccnc2)cc1` returned an ED50 in test [1] of over 80 µg. The compound further returned an Activity in test [3] of 11%. Compound `CCCCCCCCCCOc1ccc(-n2ccnc2)cc1` gave an ED50 in test [1] of over 80 µg. The Activity in test [3] was determined as 33%. For `CCCCCCOc1ccc(OCCCn2ccnc2)cc1`, in test [1], the ED50 turned out to be 36 µg. Regarding `c1ccc(Cn2ccnc2)cc1` [BENZYLIMIDAZOLE], the ED50 in test [1] was over 80 µg. The compound also had an Activity in test [3] of 0%. In test [1], `CCCCCCCCOc1ccc(-n2ccnc2)cc1` yielded an ED50 of 40 µg. In test [4], `CC(C)=CCCC(C)CCn1ccnc1` (stereo not given) gave an Activity of 20%. For the same compound, the ED50 in test [1] is over 40 µg.

`CCCCOc1ccc(-n2ccnc2)cc1` had an ED50 in test [1] of over 80 µg. In test [3], the Activity came out at 0%.

For the compound `CC(C)(C)c1ccc(OCCCn2ccnc2)cc1`, in test [1], the ED50 was over 80 µg. In test [3], this compound returned an Activity of 20%. Take `CCCCCCCCCCCCn1ccnc1`: the ED50 in test [1] was determined as 15 µg. The Activity in test [5] is 100%; in test [6], 0%; in test [7] it was 0%. `c1ccc(OCCCn2ccnc2)cc1` registered an ED50 in test [1] of over 80 µg. The same compound showed an Activity in test [3] of 0%. `CCc1ccc(OCCCn2ccnc2)cc1` displayed an ED50 in test [1] of 17 µg. With `CCCc1ccc(OCCCn2ccnc2)cc1`, the ED50 in test [1] was 16 µg. Besides, the Activity in test [5] is on record as 100%; in test [6], 0%; in test [7], 0%. Take `CCCCCCCCCCn1ccnc1`: the ED50 in test [1] is 18 µg. As to `CCC(C)c1ccc(OCCCn2ccnc2)cc1` (stereo not given), the ED50 in test [1] amounted to 91 µg. Turning to `CCCCCCCCCCCCCCn1ccnc1`, in test [1], the ED50 is 30 µg. In the case of `CCCCCCCCn1ccnc1`, in test [4], the Activity was 0%. Moreover, the ED50 in test [1] was over 40 µg.
